From patent US11464854B2, “Methods and compositions relating to adjuvants” (Children's Medical Center Corporation, priority 2017, dated 2022)

Target: T1, human TLR7 (Homo sapiens, UniProt Q9NYK1)
T1 construct: host or cells: HEK293 with NF-kB-responsive SEAP reporter
T1 sequence (Q9NYK1 27-1049): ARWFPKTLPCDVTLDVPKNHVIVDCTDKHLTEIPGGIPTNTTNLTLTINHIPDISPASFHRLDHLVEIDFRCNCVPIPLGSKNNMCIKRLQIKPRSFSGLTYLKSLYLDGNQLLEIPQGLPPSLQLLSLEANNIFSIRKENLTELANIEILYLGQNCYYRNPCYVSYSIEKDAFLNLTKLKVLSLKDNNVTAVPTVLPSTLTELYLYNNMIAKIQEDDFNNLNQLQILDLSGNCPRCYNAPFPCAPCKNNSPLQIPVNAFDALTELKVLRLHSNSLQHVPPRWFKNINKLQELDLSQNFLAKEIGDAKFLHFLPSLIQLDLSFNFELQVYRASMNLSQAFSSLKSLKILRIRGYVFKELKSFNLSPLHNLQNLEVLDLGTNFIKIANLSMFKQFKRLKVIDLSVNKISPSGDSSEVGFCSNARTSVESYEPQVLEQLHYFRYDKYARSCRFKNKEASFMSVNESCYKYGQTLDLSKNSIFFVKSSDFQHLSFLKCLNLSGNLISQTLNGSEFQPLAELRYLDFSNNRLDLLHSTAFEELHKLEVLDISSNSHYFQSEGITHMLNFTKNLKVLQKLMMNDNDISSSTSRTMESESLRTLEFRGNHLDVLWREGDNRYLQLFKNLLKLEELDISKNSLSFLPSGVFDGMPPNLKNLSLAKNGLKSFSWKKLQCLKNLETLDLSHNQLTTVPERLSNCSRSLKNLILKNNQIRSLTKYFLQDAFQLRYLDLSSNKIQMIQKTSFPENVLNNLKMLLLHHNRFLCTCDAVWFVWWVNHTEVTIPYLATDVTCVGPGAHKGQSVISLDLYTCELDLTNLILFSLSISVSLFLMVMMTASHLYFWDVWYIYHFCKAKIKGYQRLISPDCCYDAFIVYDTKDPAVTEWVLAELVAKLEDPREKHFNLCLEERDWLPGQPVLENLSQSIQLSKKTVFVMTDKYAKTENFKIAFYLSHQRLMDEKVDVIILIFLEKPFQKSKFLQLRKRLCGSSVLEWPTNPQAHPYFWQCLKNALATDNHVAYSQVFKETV
Test: HEK293 NF-kB SEAP reporter assay, human TLR7
Format: cell-based
Conditions: among six IMQ and OA compounds, SEAP fold change
Experimental: Human embryonic kidney (HEK)293 cells expressing human TLR7 or TLR8 with an NF-κB-responsive secreted embryonic alkaline phosphatase (SEAP) reporter gene were obtained from Novus Biologicals (Littleton, Colo.) and Invivogen (San Diego, Calif.), respectively. Cells were maintained in DMEM with 10% HI-FBS and selection antibiotics per the manufacturer's instructions. Cells were plated at 5×10^5 cells/96-well and stimulated with indicated agonist(s) for 24 h. Supernatants were harvested and analyzed for NF-κB/SEAP activation using the QuantiBlue™ kit (Invivogen). Values are expressed as fold change in OD650 over vehicle-only treated samples.

SMILES: CCCCc1nc2c(N)nc3ccccc3c2n1CCO [CRX-649]
- potency for hTLR7: greatest potency
